Assay results reported in patent US9000031B2, “Thioxanthone-based autophagy inhibitor therapies to treat cancer” (Spectrum Pharmaceuticals, Inc., priority 2010, dated 2015).

Columns and labels:
[1] = system: LC3-II, SQSTM1/p62; assay: LC3-II formation and SQSTM1/p62 accumulation with Bafilomycin A1 (FIG. 1F); format: cell-based
[2] = system: breast cancer cell lines; assay: Apoptosis by PI staining and FACS analysis of sub-G0/G1 DNA content; format: cell-based
Description: (§1) Cells from the breast cancer cell lines MDA-MB-231, BT-474, SKBR-3, and BT-20 were seeded into 96-well microculture plates at 10,000 cells per well and allowed to attach for 24 hours. Cells were then treated with 10 μM Lucanthone for 72 hours (48 hours for apoptosis assay). For immunoblotting, cells were harvested after treatment and cathepsin D levels were determined as described above. Pro-apoptotic effects following in vitro drug exposure were quantified by propidium iodide (PI) staining and fluorescence-activated cell sorting (FACS) analysis of sub-G0/G1 DNA content. Data is representative of three independent experiments.
Cells from the breast cancer cell lines MDA-MB-231, BT-474, SKBR-3, and BT-20 were seeded into 96-well microculture plates at 10,000 cells per well and allowed to attach for 24 hours. For immunoblotting, cells were then treated with 10 μM Lucanthone, 2.5 μM Vorinostat, or the combination for 72 hours, harvested, and cathepsin D levels were determined as described above. For the MTT cell viability assay, the cells were then treated with 10 μM Lucanthone, 2.5 μM Vorinostat, or the combination for 72 hours. After treatment, 3-(4,5-dimethylthiazol-2-yl)-2,5, diphenyltetrazolium bromide (MTT) was added after treatment and cell viability was quantified using a BioTek (Winooski, Vt.) microplate reader. […] Pro-apoptotic effects following in vitro drug exposure were quantified by propidium iodide (PI) staining and fluorescence-activated cell sorting (FACS) analysis of sub-G0/G1 DNA content. […]
Cells from the breast cancer cell lines MDA-MB-231 and BT-20 were seeded into 96-well microculture plates at 10,000 cells per well and allowed to attach for 24 hours. […] After treatment, 3-(4,5-dimethylthiazol-2-yl)-2,5, diphenyltetrazolium bromide (MTT) was added after treatment and cell viability was quantified using a BioTek (Winooski, Vt.) microplate reader. […] Pro-apoptotic effects following in vitro drug exposure were quantified by propidium iodide (PI) staining and fluorescence-activated cell sorting (FACS) analysis of sub-G0/G1 DNA content. […]

[3] = system: cathepsin D; assay: Cathepsin D expression by immunoblotting in breast cancer cell lines; format: cell-based; settings: MDA-MB-231, BT-474, SKBR-3, BT-20 cells, 10 μM Lucanthone, 72 hours
Description: (§2) Levels and aggregation of SQSTMI/p62 were determined by immunoblotting and immunocytochemistry, respectively. […] Cells were harvested and were then lysed using routine procedures. Approximately 50 μg of total cellular protein from each sample were subjected to SDS-PAGE, proteins were transferred to nitrocellulose membranes, and the membranes were blocked with 5% nonfat milk in a Tris-buffered saline solution containing 0.1% TWEEN-20 for 1 hour. The blots were then probed overnight at 4° C. with primary antibodies, washed, and probed with species-specific secondary antibodies coupled to horseradish peroxidase. Immunoreactive material was detected by enhanced chemiluminescence (West Pico, Pierce, Inc., Rockville, Ill.).
as §1, with “experiments. […]” for “experiments.”

[4] = system: MDA-MB-231 breast cancer cell line; assay: Vacuolization by Giemsa staining and transmission electron microscopy; format: cell-based; settings: MDA-MB-231 cells, 48 hours; for accumulation of electron dense particles: 10 μM Lucanthone or 50 μM Chloroquine, transmission electron microscopy
Description: Increased vacuolization was visualized by Giemsa staining and transition electron microscopy. […] After drug treatment, cells were washed with PBS and fixed in methanol for 5 minutes. Cells were then incubated for 1 hour in Giemsa stain diluted 1:20 with deionized water. Cells were rinsed with water and imaged using an Olympus fluorescent microscope. Image-Pro Plus software Version 6.2.1 was used for image acquisition. Transmission electron microscopy of cells was performed using routine procedures. Sections were cut in an LKB Ultracut microtome (Leica, Deerfield, Ill.), stained with uranyl acetate and lead citrate, and examined in a JEM 1230 transmission electron microscope (JEOL, USA, Inc., Peabody, Mass.). Images were captured using the AMT Imaging System (Advanced Microscopy Techniques Corp, Danvers, Mass.).

[5] = system: SQSTMI/p62; assay: SQSTMI/p62 levels and aggregation by immunoblotting and immunocytochemistry; format: cell-based; settings: MDA-MB-231 cells
Description: This protein is degraded by autophagy, localized to cellular inclusion bodies, and has been proposed to play a role in facilitating protein aggregate clearance by autophagy. As such, a disruption of this process would result in the accumulation of SQSTMI/p62.
as §2

[6] = system: MDA-MB-231 and BT-20 breast cancer cell lines; assay: Affymetrix expression arrays; format: cell-based, human; settings: MDA-MB-231 and BT-20 cells, 10 μM Lucanthone, 48 hours
Description: To further characterize the effects of Lucanthone on breast cancer cells, expression profiling was performed on breast cancer cell lines. Cells from a MDA-MB-231 and a BT-20 breast cancer cell line were treated with 10 μM Lucanthone for 48 hours. Total RNA was isolated using the RNeasy Plus Mini Kit (Qiagen, Germantown, Md.) and treated with TURBO DNA-Free™ Kit (Applied Biosystems, Foster City, Calif.). 300 ng of total RNA per sample was amplified and hybridized to […]® Human Gene 1.0 ST arrays (Affymetrix, Inc., Santa Clara, Calif.) according to the manufacturer's instructions. These arrays assay for the expression of about 28,869 well-annotated genes with 764,885 distinct probes. Affymetrix CEL files were imported into PARTEK® Genomics Suite™ 6.4 (Partek Inc., St. Louis, Mo.) using the default Partek normalization parameters and the robust multi-array average (RMA) analysis adjusted for probe sequence and GC content (GC-RMA). Data normalization was performed across all arrays using quantile normalization.

[7] = system: cathepsin D; assay: Cathepsin D protein levels and aggregation by immunocytochemistry; format: cell-based; settings: immunocytochemistry (FIG. 3C)
[8] = system: breast cancer cell lines; assay: Cell viability by MTT assay in breast cancer cell lines; format: cell-based; settings: for IC50: 72 h, read-out: mean IC50, breast cancer cell viability
Excerpt: (§3) Data is representative of three independent experiments.
as §3, §3

[9] = system: cathepsin D; assay: Quantitative real-time PCR analysis of cathepsin D; format: cell-based; settings: MDA-MB-231 and BT-20 cells, 10 μM Lucanthone, 48 hours, standardized to GAPDH
Description: The lysosomal protease cathepsin D is a key mediator of apoptosis and its release into the cytosol has been reported to promote cell death. Considering this, we further evaluated the role of cathepsin D during Lucanthone-mediated cell death using quantitative real-time PCR (qRT-PCR). To perform qRT-PCR, cells from a MDA-MB-231 or a BT-20 cell lines were treated with 10 μM Lucanthone for 48 hours and then harvested for analysis. Total RNA was isolated using the RNeasy Plus Mini Kit (Qiagen, Germantown, Md.) and treated with TURBO DNAfree™ Kit (Applied Biosystems, Foster City, Calif.). First-strand cDNA synthesis was performed from 1 μg RNA in a 20 μL reaction mixture using the high-capacity cDNA Reverse Transcription Kit (Applied Biosystems, Foster City, Calif.). Cathepsin D and GAPDH transcripts were amplified using commercially available TaqMan@Gene expression assays (Applied Biosystems, Foster City, Calif.). Levels of mRNAs were standardized to the expression of GAPDH and relative gene expression was calculated with the 2^−ΔCt method.

[10] = system: HCT116 colorectal cancer cell lines; assay: Cell viability in isogenic HCT116 p53 cell lines; format: cell-based; settings: HCT116 p53+1^+ and p53−1^− cell lines
Excerpt: (§4) Loss of function of p53 is a frequent event in human cancer that is associated with tumorigenesis and drug resistance. […] To investigated the role of p53 in Lucanthone-mediated cell death, […]

[11] = system: cathepsin D; assay: Cathepsin D accumulation in isogenic HCT116 p53 cell lines; format: cell-based; settings: HCT116 p53+1^+ and p53−1^− cell lines
Excerpt: as §4

[12] = system: MDA-MB-231 breast cancer cell line; assay: Lysosomal membrane permeabilization by loss of acridine orange fluorescence; format: cell-based; settings: MDA-MB-231 cells, 10 μM Lucanthone or 50 μM Chloroquine, 48 hours
Description: The appearance of LMP was monitored by loss of acridine orange fluorescence. Acidic lysosomes were visualized by acridine orange staining. […] Cells were washed with PBS and images were captured using an Olympus fluorescent microscope. Based on the acidity, lysosomes appeared as orange fluorescent cytoplasmic vesicles. Quantification of 5 random fields of acridine orange intensity was measured by immunofluorescence and image acquisition were performed using Image-Pro Plus software Version 6.2.1.

[13] = system: MDA-MB-231 breast cancer cell line; assay: Lucanthone-induced apoptosis after cathepsin D siRNA knockdown; format: cell-based; settings: MDA-MB-231 cells, 100 nM cathepsin D siRNA vs non-target siRNA, 10 μM Lucanthone, 48 hours
Description: To further establish the mechanistic role of cathepsin D in Lucanthone-induced apoptosis, siRNA was used to knockdown its expression (FIG. 4C). Preparation of siRNAs Cahepsin D and non-target SMARTpool siRNA were obtained from Dharmacon (Lafayette, Colo.). Cells from a MDA-MB-231 breast cancer cell line were transfected with 100 nM of either non-target or cathepsin D siRNA using Oligofectamine (Invitrogen, Carlsbad, Calif.) according to the manufacturers protocol. Transfected cells were incubated at 37° C. for 24 hours and then treated with 10 μM Lucanthone for 48 hours. Efficiency of RNAi was measured at 48 hours by immunoblotting using an α-cathepsin D antibody. Apoptosis was determined by PI staining and flow cytometry.

[14] = system: LC3-II; assay: Accumulation of LC3-II by immunocytochemistry; format: cell-based; settings: MDA-MB-231 cells, 10 μM Lucanthone, 48 hours
Description: Accumulation of LC3-II was visualized by immunocytochemistry. Cells from a MDA-MB-231 breast cancer cell line were plated on chamber slides and allowed to attach overnight. […] Following drug treatment, cells were fixed with 4% paraformaldehyde, permeabilized using 0.2% TRITON-X-100, and incubated overnight with indicated primary antibodies. Alexa Fluor 488 conjugated fluorescent secondary antibodies were used to visualize protein localization. Images were captured using an Olympus fluorescent microscope (Center Valley, P A) with a DP71 camera and a 60× objective. Image-Pro Plus software Version 6.2.1 (MediaCybernetics, Bethesda, Md.) was used for image acquisition.

[15] = breast cancer cell lines, FIG. 1G

SMILES	LC3-II formation [1]	SQSTM1/p62 accumulation [1]	apoptosis [2, 15]	cathepsin D levels [3]	accumulation of electron dense particles [4]	cytoplasmic vacuolization ([4]; 10 μM Lucanthone, Giemsa staining)	SQSTMI/p62 levels ([5]; 10 μM Lucanthone, 48 hours, immunoblotting)	SQSTMI/p62 aggregation ([5]; immunocytochemistry)	genes induced: cathepsin D (CTSD), MMPI, CYPIAI (upregulated by at least 4-fold) [6]	cathepsin D protein levels and cytosolic aggregation [7]	IC50 [8] [µM]	cell viability ([8]; panel of seven breast cancer cell lines, varying concentrations, 72 hours, MTT)	cathepsin D mRNA levels (qRT-PCR) [9]	cell viability [10]	cathepsin D accumulation [11]	acridine orange staining intensity of lysosomes (lysosomal acidity) [12]	apoptosis ([2]; MDA-MB-231, BT-474, SKBR-3, BT-20 cells, 10 μM Lucanthone, 48 hours, PI-FACS)	sensitivity to Lucanthone-mediated apoptosis of cells with reduced cathepsin D levels [13]	lipid modification of LC3 into LC3-II (punctate localization to autophagosomes) [14]
CO/C1=C\C(C)=C\[C@@H](C)[C@@H](O)[C@@H](C)C/C(C)=C/C=C/[C@H](OC)[C@@H]([C@@H](C)[C@@H](O)[C@H](C)[C@@]2(O)C[C@@H](O)[C@H](C)[C@@H](C(C)C)O2)OC1=O [Bafilomycin A1]	induce LC3-II formation	SQSTM1/p62 accumulation	induce apoptosis in breast cancer cell lines																
CCN(CC)CCNc1ccc(C)c2sc3ccccc3c(=O)c12 [Lucanthone, 1-((2-(Diethylamino)ethyl)amino)-4-methylthioxanthen-9-one]	induce LC3-II formation	SQSTM1/p62 accumulation	induce apoptosis in breast cancer cell lines	strongly increased	induced an accumulation of electron dense particles	induced cytoplasmic vacuolization	strongly increased	aggregated in response to Lucanthone	increased in both cell lines	dramatically increased cathepsin D protein levels and promoted its cytosolic aggregation	7.2	reduced cell viability to a similar extent in a panel of seven breast cancer cell lines	induced a significant increase in cathepsin D levels in both cell lines	reduced viability to a similar extent	induced cathepsin D accumulation equally regardless of p53 status	decreased the red staining intensity of lysosomes	induces apoptosis in four different breast cancer cell lines	significantly less sensitive	induced lipid modification of LC3-1 into LC3-II
CCN(CC)CCCC(C)Nc1ccnc2cc(Cl)ccc12 (stereo not shown) [Chloroquine]					induced an accumulation of electron dense particles						66					loss of lysosomal acidity			
